In patent publication US3984470A, “Amidoxime derivatives and process for preparing the same” (priority 1974, dated 1976):

Columns and labels:
toxicity of yohimbine = assay: Potentiation of the toxicity of yohimbine (test of QUINTON); assay type: in vivo, male mice; conditions: Mus musculus; 50 mg/kg oral; yohimbine hydrochloride 25 mg/kg i.p.; mortality after 24 hours
Experimental: Yohimbine is a substance which provokes an increase in the serotonine level in the brain or a decrease in norepinephrine according to the author.
For this purpose, the test of QUINTON was used which is described in Brit. J. Pharmacol. 21, 51 (1963). […] […] The percentage of mortality was noted after 24 hours.
Table III hereunder expresses the percentage of potentiation of the toxicity due to yohimbine in comparison with the controls.
The percentage in question was determined 24 hours after the administration of yohimbine.

reserpine-induced ptosis = assay: Reserpine-induced ptosis in the rat; assay type: in vivo, male rats of the CF1 strain; conditions: reserpine 5 mg/kg i.p., score scale 0-4, mean to 6th hour vs controls
Experimental: (§1) The thymoanaleptic properties of the compounds of the invention were determined by means of reserpine-induced ptosis and hypothermia in the rat.
An intraperitoneal dose of 5 mg/kg of reserpine was administered to batches of 5 male rats of the CF1 strain weighing an average of 300 g.
Thirty minutes later a dose of the compound to be studied was given by oral route and the inhibitory effect of the reserpine was noted every hour up to the sixth hour. Ptosis was evaluated for each eye in accordance with the following scale:
4 : eyelids completely closed.
The difference between these two averages represents the average decrease of the ptosis in the treated animals as compared to the controls.

[1] = tested on: stereotypies induced by amphetamine; assay: Potentiation of the stereotypies induced by amphetamine; assay type: in vivo, rats
Experimental: It is commonly admitted that amphetamine induces stereotypies by stimulating the dopaminergic receptors and inhibiting the re-uptake of dopamine into the neuron.
The thymoanaleptics potentiate these stereotypies.
Thirty minutes later, a dose of 10 mg/kg of the compound to be tested was given by oral route. Note was taken of the intensity of the stereotypies every 30 minutes for 150 minutes in accordance with the following scale which indicates the behaviour of the animal.
0 : the rat is motionless and asleep
1 : the rat is motionless and awake
3 : the rat stands on its hind paws and sniffs the lid of its cage in a stereotyped manner.
4 : the rat licks the walls of its cage in a stereotyped manner
5 : the rat bites the bars of its cage or sniffs the shavings of its litter in a stereotyped manner
6 : the rat chews the shavings in a stereotyped manner
The average of the 5 results obtained for each batch was calculated and compared with the average obtained with the control animals.
The difference between these averages represents the mean increase of the steroetypies of the treated animals in comparison with the controls.

[2] = tested on: reserpine-induced hypothermia; assay: Reserpine-induced hypothermia in the rat; assay type: in vivo, male rats CF1; conditions: reserpine 5 mg/kg i.p., mean to 6th hour vs controls
Experimental: as §1
An intraperitoneal dose of 5 mg/kg of reserpine was administered to batches of 5 male rats CF1 weighing an average of 300 g. Thirty minutes later, the rectal temperature was determined and then a dose of the compound to be tested was given by oral route, except to the control animals. The rectal temperature of all the animals including the controls was taken every hour up to the 6th hour.
The difference between these two averages enabled an estimation to be made regarding the antagonistic effect of the compounds of the invention on the hypothermia induced by reserpine.

[3] = tested on: cholinergic effects provoked by tremorine; assay: Cholinolytic properties: action with respect to tremorine; assay type: in vivo, male mice of the OF1 strain; conditions: tremorine 10 mg/kg, difference vs controls
Experimental: When injected into mice, tremorine and its metabolite, oxotremorine, produce central cholinergic effects, i.e. normal and provoked tremor as well as peripheral cholinergic effects i.e. weeping, sweating diarrhoea and salivation.
Male mice of the OF1 strain weighing 22 g, were divided into batches of 10. Each batch with the exception of the control animals, received, by oral route, a dose of the compound to be tested.
Thirty minutes later, 10 mg/kg of tremorine were administered to all the batches and thirty minutes after the injection of tremorine note was taken of the cholinergic effects on each animal in accordance with the following scale: […]

[4] = 10 mg/kg oral, amphetamine 10 mg/kg i.p., every 30 min for 150 min

SMILES | mortality at 50 mg/kg (toxicity of yohimbine) [%] | Average decrease of Ptosis (reserpine-induced ptosis; 10 mg/kg oral) | Average increase of the stereotypies [1, 4] | Average inhibition of hypothermia (positive °C) ([2]; 10 mg/kg oral) [°C] | also measured
Cc1oc2ccc(OCC(N)=NO)cc2c1C [Compound 15, 2-(2,3-Dimethyl-5-benzofuryloxy)-acetamidoxime] | 10 | 0.5 | 1 | – | –
CC(C)(Oc1cccc2c1OCCO2)C(N)=NO [Compound 38, 2-[(1,4-Benzodioxanyl)-5-oxyl]-2-methyl-propionamidoxime] | 10 | – | – | 0.5 | –
NC(COc1cccc2ccoc12)=NO [Compound 7, 2-(7-Benzofuryloxy)-acetamidoxime] | 60 | 1.4 | 4.8 | 0.6 | –
CC(C)c1oc2ccccc2c1OC(C)(C)C(N)=NO [Compound 35, 2-(2-Isopropyl-3-benzofuryloxy)-2-methyl-propionamidoxime] | – | – | 3 | 0.7 | –
CCC(Oc1c(C)oc2ccccc12)C(N)=NO (stereo not shown) [Compound 39, 2-(2-Methyl-3-benzofuryloxy)-butyramidoxime] | 40 | – | – | 0.3 | –
CCc1oc2ccccc2c1OCC(N)=NO [Compound 27, 2-(2-Ethyl-3-benzofuryloxy)-acetamidoxime] | 20 | – | – | – | Average decrease of Ptosis (reserpine-induced ptosis; 20 mg/kg oral): 0.3
CCC(Oc1ccc2ccccc2c1)C(N)=NO (stereo not shown) [Compound 37, 2-(2-Naphthyloxy)-butyramidoxime] | – | – | 1.8 | 0.5 | –
Cc1oc2ccccc2c1OCCC(N)=NO [Compound 19, 3-(2-Methyl-3-benzofuryloxy)-propionamidoxime] | 10 | 0.3 | – | – | –
Cc1oc2ccc(OCCC(N)=NO)cc2c1C [Compound 23, 3-(2,3-Dimethyl-5-benzofuryloxy)-propionamidoxime] | – | 0.2 | – | 0.3 | –
Cc1oc2ccccc2c1OC(C)C(N)=NO (stereo not shown) [Compound 16, 2-(2-Methyl-3-benzofuryloxy)-propionamidoxime] | – | 0.5 | – | – | –
Cc1oc2cc(OCC(N)=NO)ccc2c1C [Compound 21, 2-(2,3-Dimethyl-6-benzofuryloxy)-acetamidoxime] | 40 | 0.3 | 4.2 | – | –
CCC(Oc1c(C(C)C)oc2ccccc12)C(N)=NO (stereo not shown) [Compound 20, 2(2-Isopropyl-3-benzofuryloxy)-butyramidoxime] | – | 0.3 | – | 0.8 | –
Cc1cc2cc(OCCC(N)=NO)ccc2o1 [Compound 32, 3-(2-Methyl-5-benzofuryloxy)-propionamidoxime] | – | – | – | – | Average decrease of Ptosis (reserpine-induced ptosis; 100 mg/kg oral): 2.3
CCC(Oc1cccc2c(C)c(C)oc12)C(N)=NO (stereo not shown) [Compound 41, 2-(2,3-Dimethyl-7-benzofuryloxy)-butyramidoxime] | – | – | – | – | Average inhibition of hypothermia (positive °C) ([2]; 100 mg/kg oral): 1.1 °C
CCc1oc2ccccc2c1OCCC(N)=NO [Compound 13, 3-(2-Ethyl-3-benzofuryloxy)-propionamidoxime] | – | 0.7 | 2.4 | – | Central response tremor: Normal ([3]; 25 mg/kg oral): 0; Central response tremor: Provoked ([3]; 25 mg/kg oral): 0; Peripheral cholinergic response: Salivat. ([3]; 25 mg/kg oral): 0; Peripheral cholinergic response: Sweating ([3]; 25 mg/kg oral): 0; Peripheral cholinergic response: Weeping ([3]; 25 mg/kg oral): 0
Cc1oc2ccccc2c1OC(C)(C)C(N)=NO [Compound 22, 2-(2-Methyl-3-benzofuryloxy)-2-methyl-propionamidoxime] | – | 0.3 | 4.2 | 0.5 | Central response tremor: Normal ([3]; 10 mg/kg oral): 0; Central response tremor: Provoked ([3]; 10 mg/kg oral): 0; Peripheral cholinergic response: Salivat. ([3]; 10 mg/kg oral): 0; Peripheral cholinergic response: Sweating ([3]; 10 mg/kg oral): 0; Peripheral cholinergic response: Weeping ([3]; 10 mg/kg oral): 0
CCC(Oc1ccc2ccoc2c1)C(N)=NO (stereo not shown) [Compound 31, 2-(6-Benzofuryloxy)-butyramidoxime] | – | – | – | – | Average decrease of Ptosis (reserpine-induced ptosis; 100 mg/kg oral): 2.3
CCC(Oc1cccc2ccoc12)C(N)=NO (stereo not shown) [Compound 42, 2-(7-Benzofuryloxy)-butyramidoxime] | 60 | – | – | – | –
CC(C)(Oc1ccc2ccccc2c1)C(N)=NO [Compound 40, 2-(2-Naphthyloxy)-2-methyl-propionamidoxime] | – | – | – | 0.2 | –
CC(Oc1c(C(C)C)oc2ccccc12)C(N)=NO (stereo not shown) [Compound 24, 2-(2-Isopropyl-3-benzofuryloxy)-propionamidoxime] | 30 | 0.2 | 3.8 | 0.8 | –
CC(Oc1cccc2c1OCCO2)C(N)=NO (stereo not shown) [Compound 45, 2-[(1,4-Benzodioxanyl)-5-oxy]-propionamidoxime] | 10 | – | 3 | – | –
CCc1oc2ccccc2c1OC(C)C(N)=NO (stereo not shown) [Compound 17, 2-(2-Ethyl-3-benzofuryloxy)-propionamidoxime] | 20 | 0.4 | 1.2 | – | Central response tremor: Normal ([3]; 25 mg/kg oral): -0.8; Central response tremor: Provoked ([3]; 25 mg/kg oral): 0; Peripheral cholinergic response: Salivat. ([3]; 25 mg/kg oral): 0; Peripheral cholinergic response: Sweating ([3]; 25 mg/kg oral): 0; Peripheral cholinergic response: Weeping ([3]; 25 mg/kg oral): 0
CC(Oc1ccc2occc2c1)C(N)=NO (stereo not shown) [Compound 29, 2-(5-Benzofuryloxy)-propionamidoxime] | – | – | – | – | Average inhibition of hypothermia (positive °C) ([2]; 100 mg/kg oral): 0.8 °C; Average decrease of Ptosis (reserpine-induced ptosis; 100 mg/kg oral): 2.4; Average increase of the stereotypies ([1]; 20 mg/kg, same conditions (amphetamine 10 mg/kg i.p.)): 5
CC(C)(Oc1cccc2ccccc12)C(N)=NO [Compound 11, 2-(1-Naphtyloxy)-2-methyl-propionamidoxime] | – | 0.7 | – | – | Average inhibition of hypothermia (positive °C) ([2]; 20 mg/kg oral): 0.5 °C
NC(COc1ccc2ccoc2c1)=NO [Compound 25, 2-(6-Benzofuryloxy)-acetamidoxime] | 30 | 0.2 | 4.4 | – | –
Cc1oc2c(OC(C)C(N)=NO)cccc2c1C (stereo not shown) [Compound 44, 2-(2,3-Dimethyl-7-benzofuryloxy)-propionamidoxime] | 40 | – | – | – | –
CCC(Oc1cccc2occc12)C(N)=NO (stereo not shown) [Compound 43, 2-(4-Benzofuryloxy)-butyramidoxime] | 60 | – | 5.5 | – | –
CCc1oc2ccccc2c1OC(CC)C(N)=NO (stereo not shown) [Compound 10, 2-(2-Ethyl-3-benzofuryloxy)-butyramidoxime] | 10 | 0.8 | 5.6 | – | –
CC(C)c1oc2ccccc2c1OCC(N)=NO [Compound 36, 2-(2-Isopropyl-3-benzofuryloxy)-acetamidoxime] | – | – | 1.8 | 0.7 | –
CC(Oc1ccc2ccoc2c1)C(N)=NO (stereo not shown) [Compound 28, 2-(6-Benzofuryloxy)-propionamidoxime] | – | – | – | – | Average inhibition of hypothermia (positive °C) ([2]; 100 mg/kg oral): 1.1 °C; Average decrease of Ptosis (reserpine-induced ptosis; 100 mg/kg oral): 2.4
